Consider 8 compounds from patent publication US5272178A, “Compounds of cyclic phenolic thioethers which are useful in stimulating and inhibiting superoxide generation” (G. D. Searle & Co., priority 1993, dated 1993).

In one assay the test system is human neutrophils. The experiment in a line: Human neutrophil superoxide generation (FMLP-stimulated, cytochrome C reduction). The note with it: for IC50: read-out: FMLP Induced Superoxide Generation, Inhibition IC50. The assay is classed as cell-based. The procedure: The compounds of the invention are evaluated with respect to superoxide modulating activity according to the following assay procedure:
Human neutrophil superoxide generation: Superoxide generation by formyl-methionyl-leucyl-phenylalanine (FMLP)-stimulated neutrophils was quantitated by the reduction of cytochrome C (Badwey, J. A., Curnutte, J. T. and Karnovsky, M. L., cis-Polyunsaturated fatty acids induce high levels of superoxide production by human neutrophils. J. Biol. Chem. 256: 12640-12643, 1981.) To 5 million neutrophils in 2.85 ml of Krebs-Ringer phosphate buffer, pH 7.2, 50 ul of inhibitor (in 10% DMSO/buffer), and 50 ul ferricytochrome C (5 mM, stock) were added and preincubated for 3 minutes at 37° C. Absorption measurements at 550 nm were recorded at start of preincubation. Fifty ul FMLP (6 uM, stock) was added to initiate reaction. A plateau was reached within 3 minutes and this reading minus the initial reading (before addition of FMLP) was used to calculate nanomoles of superoxide generated based on a molar extinction coefficient of 2.1×10^4 cm^-1 mole^-1.
Isolation of human neutrophils: Human neutrophils were isolated from freshly drawn blood of healthy donors. Two ml of 5% dextran (MW 200,000-300,000) in saline was added to 10 ml aliquots of blood, mixed and placed upright for 45 min. at 37° C. Approx. 8-10 ml of the plasma-white cell suspension from the dextran sedimentation was layered on 3 ml of Ficol-paque in a 15 ml tube and centrifuged at 400 g for 30 min. The supernate, containing plasma and platelets, was discarded by aspiration, and the pellet, containing predominantly neutrophils, was resuspended in 1 ml saline. The suspension was transferred to a clean tube, and pooled with other aliquots of blood treated similarly. The pooled suspension was centrifuged at 350 g for 5 min. and supernate discarded. The pellet was resuspended in 5 ml of 0.05% NaCl with a plastic Pasteur pipette for 25 seconds to lyse contaminating red cells, then 5 ml of 1.75% NaCl added to regain isotonicity. The red cell lysing procedure was repeated, the cells suspended in appropriate buffer (depending on assay) and counted.

For a further assay, the target named is T1, 5-lipoxygenase (Rattus norvegicus, UniProt P12527).
T1 construct: The 100,000 x g supernatant fraction of Rat Basophilic Leukemia Cell Homogenate (RBL-1); endogenous in cells; host or cells: RBL-1 (rat basophilic leukemia) cells, 100,000 x g supernatant of homogenate
T1 sequence (P12527 1-673): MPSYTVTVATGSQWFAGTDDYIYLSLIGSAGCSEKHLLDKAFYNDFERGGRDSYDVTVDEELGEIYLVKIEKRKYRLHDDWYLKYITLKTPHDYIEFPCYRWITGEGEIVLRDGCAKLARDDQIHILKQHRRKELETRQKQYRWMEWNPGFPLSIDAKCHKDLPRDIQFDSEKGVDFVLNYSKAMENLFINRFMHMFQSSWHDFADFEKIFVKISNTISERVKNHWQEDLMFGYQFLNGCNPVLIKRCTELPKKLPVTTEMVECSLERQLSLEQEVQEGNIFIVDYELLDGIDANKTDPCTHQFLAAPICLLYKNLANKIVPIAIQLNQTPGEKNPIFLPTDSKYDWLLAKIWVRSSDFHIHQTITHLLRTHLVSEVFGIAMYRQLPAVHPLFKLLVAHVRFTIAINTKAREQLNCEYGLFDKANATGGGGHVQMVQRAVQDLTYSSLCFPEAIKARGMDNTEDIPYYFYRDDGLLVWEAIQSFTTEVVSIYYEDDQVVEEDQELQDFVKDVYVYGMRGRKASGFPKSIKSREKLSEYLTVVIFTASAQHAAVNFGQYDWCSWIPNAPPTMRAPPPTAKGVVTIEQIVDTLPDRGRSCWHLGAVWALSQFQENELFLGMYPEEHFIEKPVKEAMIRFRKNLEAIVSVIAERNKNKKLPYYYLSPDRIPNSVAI
Nature of the assay: Inhibition of 5-lipoxygenase, in vitro (5-HETE synthesis, RBL-1 100,000 x g supernatant). The assay is classed as biochemical. The note with it: for activation at 100 µM / activation at 10 µM: stimulation, read-out: 5-Lipoxygenase, Stimulated %. The procedure:
The compounds of the invention are evaluated with respect to 5-lipoxygenaseinhibition according to the following assay procedure.
Inhibition of 5-lipoxygenase, in vitro: anti-inflammatory, anti-allergy activities.
The 100,000 x g supernatant fraction of Rat Basophilic Leukemia Cell Homogenate (RBL-1) serves as a 5-lipoxygenase enzyme source. The enzyme is incubated with [1-^14 C)-arachidonic acid and Ca++ in the presence and absence of test compound. The product of 5-lipoxygenase, 5-hydroxyeicosatetraenoic acid (5-HETE), is separated by thin-layer chromatography an measured by radioactivity. A compound inhibiting 5-HETE synthesis by 30% or more is considered active at that concentration.
For comparison the compound of Formula XX, a known 5-lipoxygenase inhibitor described in U.S. Pat. No. 4,755,524 was used. [drawing 13]

Assay [1] concerns the target T2, Sheep Seminal Vesicle Microsome Cyclooxygenase (Ovis aries, UniProt P05979).
T2 construct: Lyophilized ovine microsome (approx. 1 mg) suspended in 2.9 ml Tris-HCl buffer, pH 8.2, containing 0.7 mM phenol were used as source; from tissue; host or cells: sheep seminal vesicle microsomes (lyophilized)
T2 sequence (P05979 25-600): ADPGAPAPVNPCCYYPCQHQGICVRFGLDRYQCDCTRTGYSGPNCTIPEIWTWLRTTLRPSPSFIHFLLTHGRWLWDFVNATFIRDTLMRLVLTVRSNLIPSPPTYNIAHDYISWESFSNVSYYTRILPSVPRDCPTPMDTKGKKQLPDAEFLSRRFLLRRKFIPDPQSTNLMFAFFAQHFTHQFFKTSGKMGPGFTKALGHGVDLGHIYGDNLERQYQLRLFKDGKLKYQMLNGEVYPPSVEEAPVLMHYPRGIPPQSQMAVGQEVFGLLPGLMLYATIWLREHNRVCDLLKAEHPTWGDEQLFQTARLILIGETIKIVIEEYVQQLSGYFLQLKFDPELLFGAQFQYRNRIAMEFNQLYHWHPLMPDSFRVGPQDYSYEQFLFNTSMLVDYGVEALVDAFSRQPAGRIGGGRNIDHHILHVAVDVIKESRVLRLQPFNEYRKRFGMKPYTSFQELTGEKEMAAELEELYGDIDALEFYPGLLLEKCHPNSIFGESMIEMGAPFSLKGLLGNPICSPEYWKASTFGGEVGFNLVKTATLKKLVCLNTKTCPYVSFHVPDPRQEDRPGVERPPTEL
Nature of the assay: Inhibition of Sheep Seminal Vesicle Microsome Cyclooxygenase. The assay is classed as biochemical. How it is done:
The compounds of the present invention evaluated with respect to cyclooxygenase inhibition according to the following assay procedure. Inhibition of Sheep Seminal Vesicle Microsome Cyclooxygenase The assay was based on oxygen consumption during conversion of arachidonic acid to prostaglandin G2 catalyzed by cyclooxygenase Biochem. 11:3276-3285 (1972). Lyophilized ovine microsome (approx. 1 mg) suspended in 2.9 ml Tris-HCl buffer, pH 8.2, containing 0.7 mM phenol were used as source of arachidonate cyclooxygenase. The inhibitor, 50 μl in DMSO, was added and the mixture preincubated for 5 minutes at 37° C. Fifty μl of arachidonic acid (final conc. 50 μM) was added to start the reaction. The slopes of the initial rates of oxygen uptake, in the presence and absence of inhibitor, were compared to determine reaction inhibition. Percent inhibition was computed using the following formula: [formula]

Setting [2] is: Homo sapiens, Neutrophil, % above control, read-out: FMLP Induced Superoxide Generation, Stimulation, % > control.

Consider `COC(=O)CS[C@@H]1CCCC[C@H]1Sc1cc(C(C)(C)C)cc(C(C)(C)C)c1` (relative stereo) [Example 4], for which the activation at 1 µM in the assay with human neutrophils (Homo sapiens, Neutrophil, 1 μM, % above control, read-out: FMLP Induced Superoxide Generation, Stimulation, % > control) came out at 67%. Further, the activation at 10 µM in the assay on human neutrophils (setting [2]) was 133%. For the same compound, in the assay on human neutrophils (Homo sapiens, Neutrophil, 100 μM, % above control, read-out: FMLP Induced Superoxide Generation, Stimulation, % > control), the activation at 100 µM was found to be 167%.
For `CC(C)(C)c1cc(S[C@@H]2CCCC[C@H]2SCC(=O)O)cc(C(C)(C)C)c1` (relative stereo) [Example 5, trans-[[2-[[3,5-bis(1,1-dimethylethyl)phenyl]thio]cyclohexyl]thio]acetic acid], the IC50 with human neutrophils (Homo sapiens, Neutrophil) was 1.1 µM; at 5-lipoxygenase, 100 µM.
As to `O=C(O)CS[C@@H]1CCCC[C@H]1Sc1ccccc1` (relative stereo) [Example 7], the “superoxide generation (statement in words)” value (shortened to “superoxide generation”) in the assay with human neutrophils is on record as “did inhibit superoxide generation”. The IC50 in the assay on human neutrophils (Homo sapiens, Neutrophil) was found to be 50 µM. For the same compound, the “5-lipoxygenase inhibition (statement in words)” value (“5-lipoxygenase inhibition” for short) on 5-lipoxygenase is recorded as “did not inhibit either 5-lipoxygenase or cyclooxygenase”. At 5-lipoxygenase (at 10^-4 M), the activation at 100 µM is 45%. Further, at 5-lipoxygenase (at 10^-5 M), the activation at 10 µM worked out at 27%. In addition, the “cyclooxygenase inhibition (statement in words)” value in assay [1] was “did not inhibit either 5-lipoxygenase or cyclooxygenase”. The “Cyclooxygenase Inhibition (in words)” value in assay [1] (at 100 μM) is recorded as “Inactive”.
For the compound `CC(C)(C)c1cccc(S[C@@H]2CCCC[C@H]2SCC(=O)O)c1` (relative stereo) [Example 11], the IC50 came to 4.8 µM with human neutrophils (Homo sapiens, Neutrophil) and 2.9 µM in assay [1]. Further, at 5-lipoxygenase (at 10^-4 M), the activation at 100 µM amounted to 2.5%. For the same compound, the activation at 10 µM at 5-lipoxygenase (at 10^-5 M) is 3.2%.
`O=C(O)CS[C@@H]1CCCC[C@H]1Sc1cccc(-c2ccccc2)c1` (relative stereo) [Example 15]: the IC50 in the assay on human neutrophils (Homo sapiens, Neutrophil) stood at 2.8 µM; in assay [1], 64 µM. Also, the inhibition at 100 µM on 5-lipoxygenase (at 10^-4 M, inhibition, read-out: 5-Lipoxygenase, Inhibited %) was determined as 21.3%. In addition, at 5-lipoxygenase (at 10^-5 M, inhibition, read-out: 5-Lipoxygenase, Inhibited %), the inhibition at 10 µM is 14.9%.
On to `CN(CCc1ccccn1)C(=O)CS[C@@H]1CCCC[C@H]1Sc1cc(C(C)(C)C)cc(C(C)(C)C)c1` (relative stereo) [Example 16], for which, in the assay on human neutrophils, the “superoxide generation” value is “stimulated superoxide generation”. In addition, in the assay with human neutrophils (setting [2]), the activation at 10 µM worked out at 33%. The activation at 25 µM in the assay on human neutrophils (Homo sapiens, Neutrophil, 25 μM, % above control, read-out: FMLP Induced Superoxide Generation, Stimulation, % > control) was 83%. Besides, the activation at 50 µM in the assay on human neutrophils (Homo sapiens, Neutrophil, 50 μM, % above control, read-out: FMLP Induced Superoxide Generation, Stimulation, % > control) amounted to 100%. Further, on 5-lipoxygenase, the “5-lipoxygenase inhibition” value is given as “inhibited 5-lipoxygenase” and the IC50 was found to be 100 µM.
As for `CC(C)(C)c1cc(S[C@@H]2CCCC[C@H]2OCC(=O)O)cc(C(C)(C)C)c1` (relative stereo) [Example 17], the IC50 is 3.4 µM in the assay with human neutrophils (Homo sapiens, Neutrophil) and over 100 µM against 5-lipoxygenase.
On to `C[C@H](Sc1cc(C(C)(C)C)c(O)c(C(C)(C)C)c1)[C@@H](C)OCC(=O)O` (relative stereo) [Formula XX, reference compound], for which the “superoxide generation” value with human neutrophils is “inhibited both superoxide generation and 5-lipoxygenase”. For the same compound, the IC50 in the assay with human neutrophils (Homo sapiens, Neutrophil) worked out at 11 µM. The “5-lipoxygenase inhibition” value at 5-lipoxygenase was “inhibited both superoxide generation and 5-lipoxygenase”.
